Laboratory results taken from US10801025B2, “MicroRNA therapy for pancreatic cancer” (Indiana University Research and Technology Corporation, priority 2016, dated 2020).

Tests used:
Panc-1 cells = assay: Autophagy flux immunoblotting (LC3B, p62); type: cell-based, human; conditions: 25 μM CQ added to control mimic cells
Description: Cells were then transfected with 10 nM control or miR-29a mimics using DharmaFECT®. 24 hours post-transfection, cells were treated with 25 μM CQ in complete media for 3-6 hours. Subsequently, total proteins were harvested and subjected to western blot analysis as described above.

[1] = tested on: Panc-1 and MIA PaCa-2 cells; assay: Cell viability, Cell Counting Kit-8 (CCK8); type: cell-based, human; conditions: 10 μM BafA1 in combination with 10 μM gemcitabine, 48 hours, compared to gemcitabine alone
Description: 5×10^3 pancreatic cancer cells per well (Panc-1, MIA PaCa-2, or COLO 357) were plated in 96-well plates and grown at 37° C. for 24 hours. Cells were then transfected with 20 nM mimic control or miR-29a mimic using DharmaFECT® 1 for 24 hours. Transfection media was then removed and replaced with complete media, and cells were allowed to recover for 24 hours and subsequently treated with varying concentrations of gemcitabine (0 μM, 0.1 μM, 1 μM, 10 μM, 100 μM). Cell viability was measured at 72 hours post-gemcitabine treatment by adding 10 μl Cell Counting Kit-8 (CCK8) reagent (Dojindo, CK04) and absorbance was measured at 450 nm. For cell viability with Chloroquine (CQ) and BafilomycinA1 (BafA1) treatment, cells were treated with 25 μM CQ (Sigma Aldrich, C6628) or 10 μM BafA1 (Sigma Aldrich, B1793) in combination with 10 μM gemcitabine for 48 hours, and viability was measured using CCK8 kit as described above.

Structure (SMILES) | LC3BI and II and p62 accumulation (Panc-1 cells) | cancer cell viability [1]
CCN(CC)CCCC(C)Nc1ccnc2cc(Cl)ccc12 (centres unmarked) [CQ, Chloroquine] | robust net increase | 
CO/C1=C\C(C)=C\[C@@H](C)[C@@H](O)[C@@H](C)C/C(C)=C/C=C/[C@H](OC)[C@@H]([C@@H](C)[C@@H](O)[C@H](C)[C@@]2(O)C[C@@H](O)[C@H](C)[C@@H](C(C)C)O2)OC1=O [BafA1, BafilomycinA1] |  | decreased cancer cell viability
